Experimental data from patent publication US10085973B2, “Pharmaceutical composition containing a compound having a thrombopoietin receptor agonistic activity” (Shionogi & Co., Ltd., priority 2012, dated 2018).
Values after ≈ are worked out from the molar mass of the structure shown. Like-named read-outs stand apart in the source and are kept apart here.

Experiments:
[1] = tested on: patients with thrombocytopenia caused by chronic liver disease; assay: Example 2 Test Example 1: repeated oral administration before percutaneous liver ablation with discontinuation criteria; format: in vivo, human
Text: To patients with thrombocytopenia caused by chronic liver disease, lusutrombopag as a pretreatment of percutaneous liver ablation was orally administered repeatedly for 7 days while applying the discontinuation criteria designed in Example 1 and profile of the platelet count was studied. In the present Example, the term “ablation” refers to radiofrequency ablation.
Patients with thrombocytopenia caused by chronic liver disease who are scheduled to undergo percutaneous liver ablation.
Patients who meet the following inclusion criteria are included. • 1) Age: 20 years of age or older (at the time of signing informed consent); • 2) Patients who themselves can give a consent in writing; • 3) Patients who have a complication or a history of chronic liver disease caused by hepatitis B or C virus; • 4) Patients who are scheduled to undergo percutaneous liver ablation for primary liver cancer; • 5) Patients having a platelet count which is less than 5×10^4/μL at the time of screening; • 6) Patients whose ECOG* Performance Status of Grade is 0 to 1; and • 7) Patients who can practice contraception from entry to the end of observation. (Exclusion Criteria)
Patients who meet the following criteria are excluded. • 1) Patients who underwent splenectomy; • 2) Patients who have a complication presenting thrombocytopenia; • 3) Patients who underwent liver transplant; • 4) Degree of hepatic disorder classified as the Child-Pugh class of C; • 5) Hepatic encephalopathy uncontrolled by medicaments; • 6) Ascites uncontrolled by medicaments; • 7) Patients who have a complication of malignant tumor other than primary liver cancer; • 8) Patients who have a complication or a history of thrombosis or thrombotic disease; • 9) Patients who have absence of hepatopetal blood flow in the portal vein; • 10) Patients who have a complication or a history of disease with hemorrhage risk; • 11) Patients who received a therapeutic agent that affects a platelet count or underwent a therapy that affects a platelet count within 90 days before registry; • 12) Patients who received a blood product (excluding erythrocyte product) within 14 days before registry; or • 13) Patients who previously received a TPO receptor agonist. (Drugs which are Prohibited, Limited or Allowed for Coadministration During the Trial)
In each allocated group, lusutrombopag is orally administered repeatedly once daily for 7 days. After patients are monitored on day 8, they undergo percutaneous liver ablation before day 13 from initiation of administration. They are monitored until about day 30 after initiation of administration.
Lusutrombopag is orally administered repeatedly once daily for 7 days. On day 1, the drug is administered at the time of visit. On day 3 to day 7 (day 5 to day 7 for the group of 2.0 mg administration), the drug shall be administered after checking the platelet count measured on the same day. Administration of lusutrombopag shall be discontinued when the platelet count reaches to the following criteria (administration discontinuating criteria) in a clinical examination after administration of the investigational drug.
Administration discontinuating criteria: when the platelet count has increased by 2×10^4/μL or more from the platelet count before initiation of administration and the platelet count has reached to 5×10^4/μL or higher.
As the platelet count before initiation of administration, the platelet count determined within 7 days before initiation of administration was used.
Daily dose was any one of 2.0, 2.5, 3.0 and 4.0 mg of lusutrombopag.
Proportion of patients who have a platelet count on day 8 after initiation of administration that increased by 2×10^4/μL or more from the platelet count before initiation of administration and reached to 5×10^4/μL or higher. […]

platelet count = assay: PD model from phase 1 trial in healthy male adults (profile of platelet count); format: in vivo, human; settings: for EC50: Homo sapiens, Platelet, read-out: EC50 (sigmoid Emax model), mean
Text: (§1) Using the plasma concentration of the drug and the platelet count data of 54 cases obtained in phase 1 trial carried out in Japan to healthy male adults, a PK/PD model was constructed that can describe pharmacokinetics and a profile of a platelet count. The PK model describing pharmacokinetics was a three-compartment model including three compartments in the absorption process in order to explain the delay in absorption. The PD model describing the relation between the plasma concentration and the profile of platelets counts was a model including five compartments in order to explain the maturation process of platelets. […] We assumed that the distributions of respective model parameters and the distributions of the residual errors of the models follow a log-normal distribution. Parameters were estimated by using the first order conditional estimation method with interaction in a software NONMEM (version VI, level 2.0).

[2] = PK model from phase 1 trial in healthy male adults (plasma concentration); format: in vivo, human
Text: as §1

[3] = Estimated PK model parameters for chronic liver disease patients (for Monte-Carlo simulation); set-up: species or system human
Text: Based on the PK/PD model in healthy adults as described in (Test Example 1), model parameters in chronic liver disease patients were estimated on the basis of the following assumptions.
PK Parameters (CL, V2/F, Q2/F, V3/F, Q3/F, V4/F, Q4/F, ktr and ka):
Therefore, as PK parameters those from healthy adults were used. As parameters ka and ktr, estimated values under the conditions of postprandial and tablets were used in line with clinical usage.

Compound: CCCCCCO[C@@H](C)c1cccc(-c2csc(NC(=O)c3cc(Cl)c(/C=C(\C)C(=O)O)c(Cl)c3)n2)c1OC [lusutrombopag, (E)-3-[2,6-dichloro-4-[4-[3-[(S)-1-hexyloxyethyl]-2-methoxyphenyl]-thiazol-2-ylcarbamoyl]-phenyl]-2-methylacrylic acid]
- Endpoint 2: Number of patients who had a platelet count during the trial that increased by 2 × 10^4/μL or more from the count before initiation of administration and reached to 5 × 10^4/μL or higher ([1]; 2.0 mg once daily, n = 12): 9
- Number of patients to whom administration was discontinued according to the administration discontinuating criteria ([1]; 2.0 mg once daily, n = 12): 3
- Number of patients who received platelet transfusion ([1]; 2.0 mg once daily, n = 12): 2
- Endpoint 2: Number of patients who had a platelet count during the trial that increased by 2 × 10^4/μL or more from the count before initiation of administration and reached to 5 × 10^4/μL or higher ([1]; 2.5 mg once daily, n = 6): 4
- Number of patients to whom administration was discontinued according to the administration discontinuating criteria ([1]; 2.5 mg once daily, n = 6): 3
- Number of patients who received platelet transfusion ([1]; 2.5 mg once daily, n = 6): 1
- Endpoint 2: Number of patients who had a platelet count during the trial that increased by 2 × 10^4/μL or more from the count before initiation of administration and reached to 5 × 10^4/μL or higher ([1]; 3.0 mg once daily, n = 7): 6
- Number of patients to whom administration was discontinued according to the administration discontinuating criteria ([1]; 3.0 mg once daily, n = 7): 0
- Number of patients who received platelet transfusion ([1]; 3.0 mg once daily, n = 7): 1
- Endpoint 2: Number of patients who had a platelet count during the trial that increased by 2 × 10^4/μL or more from the count before initiation of administration and reached to 5 × 10^4/μL or higher ([1]; 4.0 mg once daily, n = 8): 7
- Number of patients to whom administration was discontinued according to the administration discontinuating criteria ([1]; 4.0 mg once daily, n = 8): 2
- Number of patients who received platelet transfusion ([1]; 4.0 mg once daily, n = 8): 1
- efficacy at each dose ([1]; all doses (2.0, 2.5, 3.0 and 4.0 mg)): all doses showed the efficacy
- patients who had a platelet count of higher than 20×10^4/μL during the observation period ([1]; daily dose 2.0, 2.5, 3.0 and 4.0 mg): None
- maximum platelet count of patients to whom administration was discontinued according to the criteria ([1]; groups of daily dose 2 mg, 2.5 mg and 4.0 mg, vs patients who received the drug for 7 days): lower than that of patients who received the drug for 7 days
- Emax (sigmoid Emax model), mean (platelet count): 3.52
- kdeg (elimination rate constant from the platelet compartment), mean (platelet count): 0.00578 h⁻¹
- km (inter-PD-compartmental transfer rate constant), mean (platelet count): 0.0394 h⁻¹
- r (sigmoid Emax model), mean (platelet count): 2.03
- EC50 (platelet count; 50 mg/dose): 0.0216 µg/mL (≈ 0.0365 µM)
- EC50 (platelet count; <50 mg/dose): 0.0647 µg/mL (≈ 0.109 µM)
- CL (apparent total clearance), mean [2]: 0.776 L/h
- Intra-individual variability (PK model, plasma concentration) [2]: 12.1%
- Q3/F (inter-compartmental clearance), mean [2]: 0.946 L/h
- Q4/F (inter-compartmental clearance), mean [2]: 0.0262 L/h
- V3/F (volume of distribution of peripheral compartment), mean [2]: 6.28 L
- V4/F (volume of distribution of peripheral compartment), mean [2]: 2.71 L
- ka (transfer rate constant from absorption compartments to central compartment), mean ([2]; Fasting + solution): 0.563 h⁻¹
- ktr (inter-absorption-compartmental transfer rate constant), mean ([2]; Fasting + solution): 4.19 h⁻¹
- ka (transfer rate constant from absorption compartments to central compartment), mean ([2]; Postprandial + solution): 0.285 h⁻¹
- ktr (inter-absorption-compartmental transfer rate constant), mean ([2]; Postprandial + solution): 2.15 h⁻¹
- ka (transfer rate constant from absorption compartments to central compartment), mean ([2]; Postprandial + tablet): 0.854 h⁻¹
- ktr (inter-absorption-compartmental transfer rate constant), mean ([2]; Postprandial + tablet): 1.38 h⁻¹
- Vd/F ([2]; male, human, plasma, oral, × (1 + (BW − 63) × 0.0172), BW body weight kg, read-out: V2/F (volume of distribution of the central compartment), mean): 15.9 L
- Q3/F, mean [3]: 0.946 L/h
- Q4/F, mean [3]: 0.0262 L/h
- V3/F, mean [3]: 6.28 L
- V4/F, mean [3]: 2.71 L
- ka, mean ([3]; postprandial and tablets): 0.854 h⁻¹
- ktr, mean ([3]; postprandial and tablets): 1.38 h⁻¹
- CL, mean ([3]; value of healthy adults used): 0.776 L/h
- V2/F, mean ([3]; × (1 + (BW − 63) × 0.0172)): 15.9 L
